One test has as its system H. pylori. Nature of the test: MIC testing by broth dilution, H. pylori. Type of test: cell-based, Helicobacter pylori. Particulars: 24 h, read-out: MIC (μM) H. pylori. How it is done: (§1) A standard broth dilution protocol was used in 96 well microplates containing a standard dilution of the microorganism to be tested in 100 microliters of the appropriate medium. Appropriate medium: E. coli, LB medium; Staphylococcus strains, Trypticase Soy; and for H. pylori and C. jejuni, Brain Heart Infusion. The compounds to be tested were set at 32 μg/ml in 200 microliters in well one and then serially diluted to provide a range from 32 to 0.06. The wells were scored visually at 24 h. The well where there was no growth was recorded as the MIC. Clostridium difficile was tested by agar diffusion and disk diffusion (Kirby Bower) methods under anaerobic conditions on Wilkins Chalgrin agar. In these assays, zone of inhibited growth was measured and compared by relative ratio to the zone recorded for NTZ.
(§2) Representative compounds of the invention were tested in a series of assays against a series of organisms as described above. […] The organisms tested include, C. difficile, H. pylori, C. jejuni, MRSA, S. epidermidis, and E. coli. S. epidermidis and E. coli were tested in the plank and biofilm assay. A disk diffusion assay was also used for C. difficile. Direct PFOR enzyme assays were also performed. All analogues and derivatives were not tested on every organism in every type of assay (the “-” in each table means that it was not tested).

The subject of another test is C. jejuni. Nature of the test: MIC testing by broth dilution, C. jejuni. Type of test: cell-based, Campylobacter jejuni. Particulars: 24 h, read-out: MIC (μM) C. jejuni. The protocol: as §1, §2
The next test has as its system C. difficile. Nature of the test: Disk diffusion (Kirby Bower), C. difficile. Particulars: zone of inhibited growth as relative ratio to the zone for NTZ. Type of test: cell-based, Clostridium difficile. The protocol: as §1, §2
A further test has as its system MRSA. Nature of the test: MIC testing by broth dilution, MRSA. Type of test: cell-based, Staphylococcus aureus. Particulars: 24 h, read-out: MIC (μM) MRSA. How it is done:
as §1, §2

For another test, the system named is E. coli. The test can be described thus: MIC testing by broth dilution, E. coli plank. Type of test: cell-based, Escherichia coli. Particulars: 24 h, read-out: MIC (μM) E. coli Plank. How it is done:
as §1, §2

A further test relates to S. epidermidis. The test can be described thus: MIC testing by broth dilution, S. epidermidis plank. The class given is cell-based, Staphylococcus epidermidis. Particulars: 24 h, read-out: MIC (μM) S. epidermidis Plank. The protocol:
as §1, §2

Where [1] appears, read: broth dilution, Brain Heart Infusion.

Values after ≈ are worked out from the molar mass of the structure shown. Like-named read-outs stand apart in the source and are kept apart here.

Regarding `CS(=O)(=O)NCCOc1ccccc1C(=O)Nc1ncc([N+](=O)[O-])s1` [VPC162045], the MIC with H. pylori (setting [1]) turned out to be 0.6 µM (≈ 0.232 µg/mL); in the test with C. jejuni (setting [1]), 51.8 µM (≈ 20 µg/mL); in the test on MRSA (broth dilution, Trypticase Soy), 82.8 µM (≈ 32 µg/mL); in the test on E. coli (broth dilution, LB medium), 82.8 µM (≈ 32 µg/mL); in the test with S. epidermidis (broth dilution, Trypticase Soy), 62.1 µM (≈ 24 µg/mL). The “Disk Diffusion (%) C. difficile” value in the test with C. difficile was 51%.
Regarding `CC(C)(C)OC(=O)Nc1ccccc1C(=O)Nc1ncc([N+](=O)[O-])s1` [VPC162047, tert-Butyl 2-(5-nitrothiazol-2-ylcarbamoyl)phenylcarbamate], the MIC with H. pylori (Helicobacter pylori) is 0.3 µM (≈ 0.109 µg/mL); in the test with C. jejuni (Campylobacter jejuni) it was 27.4 µM (≈ 9.98 µg/mL); in the test with MRSA (Staphylococcus aureus, MRSA), 5.5 µM (≈ 2 µg/mL); with E. coli (Escherichia coli), 87.8 µM (≈ 32 µg/mL); with S. epidermidis (Staphylococcus epidermidis) it was 5.5 µM (≈ 2 µg/mL). Moreover, the “Disk Diffusion (%) C. difficile” value in the test with C. difficile amounted to 83%.
Take `O=C(NCCOc1ccccc1C(=O)Nc1ncc([N+](=O)[O-])s1)Nc1ccccc1` [VPC162048]: the MIC in the test with H. pylori (setting [1]) is reported as 0.4 µM (≈ 0.171 µg/mL); in the test with C. jejuni (setting [1]), 74.9 µM (≈ 32 µg/mL); in the test on MRSA (broth dilution, Trypticase Soy) it was 74.9 µM (≈ 32 µg/mL); in the test on E. coli (broth dilution, LB medium) it was 74.9 µM (≈ 32 µg/mL); in the test on S. epidermidis (broth dilution, Trypticase Soy), 74.9 µM (≈ 32 µg/mL). Also, the “Disk Diffusion (%) C. difficile” value in the test on C. difficile was determined as 31%.
With `Nc1ccccc1C(=O)Nc1ncc([N+](=O)[O-])s1` [VPC162055], the MIC in the test on H. pylori (setting [1]) is on record as 2.4 µM (≈ 0.634 µg/mL); with C. jejuni (setting [1]), 11.4 µM (≈ 3.01 µg/mL); in the test with MRSA (broth dilution, Trypticase Soy), 121.1 µM (≈ 32 µg/mL); in the test on E. coli (broth dilution, LB medium), 45.4 µM (≈ 12 µg/mL); in the test with S. epidermidis (broth dilution, Trypticase Soy), 90.8 µM (≈ 24 µg/mL). In addition, the “Disk Diffusion (%) C. difficile” value in the test with C. difficile amounted to 83%.
With `CC(C)(C)OC(=O)N1CCC(C(=O)NCCOc2ccccc2C(=O)Nc2ncc([N+](=O)[O-])s2)CC1` [VPC162059], the MIC with H. pylori (setting [1]) is 0.7 µM (≈ 0.364 µg/mL); in the test with C. jejuni (setting [1]), 61.6 µM (≈ 32 µg/mL); in the test on MRSA (broth dilution, Trypticase Soy), 61.6 µM (≈ 32 µg/mL); in the test on E. coli (broth dilution, LB medium), 61.6 µM (≈ 32 µg/mL); in the test with S. epidermidis (broth dilution, Trypticase Soy), 61.6 µM (≈ 32 µg/mL). Moreover, the “Disk Diffusion (%) C. difficile” value in the test on C. difficile was determined as 38%.
Turning to `Cl.NCCCCOc1ccccc1C(=O)Nc1ncc([N+](=O)[O-])s1` [VPC162096HCl], the MIC in the test on H. pylori (setting [1]) was found to be 2.0 µM; in the test with C. jejuni (setting [1]), 5.4 µM; in the test on MRSA (broth dilution, Trypticase Soy) it was 85.8 µM; with E. coli (broth dilution, LB medium), 85.8 µM; in the test with S. epidermidis (broth dilution, Trypticase Soy) it was 42.9 µM. Also, in the test with C. difficile, the “Disk Diffusion (%) C. difficile” value turned out to be 111%.
In the case of `NCCCCOc1ccccc1C(=O)Nc1ncc([N+](=O)[O-])s1.O=C(O)C(F)(F)F` [VPC162096TFA], the MIC is listed as 1.7 µM with H. pylori (setting [1]); 6.7 µM with C. jejuni (setting [1]); 71.0 µM in the test on MRSA (broth dilution, Trypticase Soy); 71.0 µM with E. coli (broth dilution, LB medium); 35.5 µM with S. epidermidis (broth dilution, Trypticase Soy). The “Disk Diffusion (%) C. difficile” value in the test with C. difficile worked out at 111%.
With `Cl.NCCCOc1ccccc1C(=O)Nc1ncc([N+](=O)[O-])s1` [VPC162102HCl], the MIC with H. pylori (setting [1]) came out at 1.0 µM; in the test with C. jejuni (setting [1]), 8.4 µM; in the test on MRSA (broth dilution, Trypticase Soy) it was 89.2 µM; in the test with E. coli (broth dilution, LB medium), 89.2 µM; with S. epidermidis (broth dilution, Trypticase Soy), 44.6 µM. In the test with C. difficile, the “Disk Diffusion (%) C. difficile” value is listed as 74%.
Consider `NCCCOc1ccccc1C(=O)Nc1ncc([N+](=O)[O-])s1.O=C(O)C(F)(F)F` [VPC162102TFA], for which the MIC is reported as 0.9 µM with H. pylori (setting [1]); 13.8 µM in the test with C. jejuni (setting [1]); 73.3 µM in the test with MRSA (broth dilution, Trypticase Soy); 73.3 µM in the test with E. coli (broth dilution, LB medium); 73.3 µM with S. epidermidis (broth dilution, Trypticase Soy). Also, the “Disk Diffusion (%) C. difficile” value in the test with C. difficile is 79%.

For the origin of these results see patent US8835644B2, “Broad spectrum benzothiophene-nitrothiazolide and other antimicrobials” (University of Virginia Patent Foundation, priority 2009, dated 2014).
